From PubChem BioAssay AID276 (DTP/NCI, 2004)
Values joined by “and” are separate entries in the source; they are usually repeats but may differ in a detail not shown here. Equal values may be shown once. Inconclusive results and toxic doses are left out. Rule for the calls: active = survival T/C of 150% or more; inactive = T/C below 125% in these data. Residues, ends and D or L forms follow the SMILES beside them. *: point of attachment. Trt = c1ccc(C(c2ccccc2)(c2ccccc2)*)cc1; Cbz = O=C(OCc1ccccc1)*

Tested on: B6C3F1 mice, Lewis lung carcinoma iv, survival T/C
Assay: NCI In Vivo Anticancer Drug Screen. Data for tumor model Lewis Lung Carcinoma (intravenous) in B6C3F1 mice
Settings: endpoint: median survival time, schedule: Q01DX009 (ip), higher = longer survival
Outline: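 T/C ratio derived from survival of compound-treated versus vehicle-treated mice bearing transplantable tumors.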

[1] = dose: 6.25 mg/kg/injection, vehicle: saline
[2] = dose: 12.5 mg/kg/injection, vehicle: saline
[3] = dose: 25.0 mg/kg/injection, vehicle: saline
[4] = dose: 50.0 mg/kg/injection, vehicle: saline
[5] = dose: 25.0 mg/kg/injection, vehicle: saline with Tween-80
[6] = dose: 50.0 mg/kg/injection, vehicle: saline with Tween-80
[7] = dose: 100.0 mg/kg/injection, vehicle: saline with Tween-80
[8] = dose: 200.0 mg/kg/injection, vehicle: saline with Tween-80
[9] = dose: 400.0 mg/kg/injection, vehicle: saline with Tween-80
[10] = dose: 6.25 mg/kg/injection, vehicle: saline with Tween-80
[11] = dose: 12.5 mg/kg/injection, vehicle: saline with Tween-80
[12] = dose: 12.5 mg/kg/injection, vehicle: distilled water + Tween-80
[13] = dose: 25.0 mg/kg/injection, vehicle: distilled water + Tween-80
[14] = dose: 50.0 mg/kg/injection, vehicle: distilled water + Tween-80
[15] = dose: 100.0 mg/kg/injection, vehicle: distilled water + Tween-80
[16] = dose: 50.0 mg/kg/injection, vehicle: Klucel (hydroxypropylcellulose) (HPC)
[17] = dose: 100.0 mg/kg/injection, vehicle: Klucel (hydroxypropylcellulose) (HPC)
[18] = dose: 200.0 mg/kg/injection, vehicle: Klucel (hydroxypropylcellulose) (HPC)
[19] = dose: 100.0 mg/kg/injection, vehicle: saline

Measured: T/C

O=C(O)C(O)C(O)C1[O][Sb][O]C1C(=O)O (configuration not stated)
inactive: [1] 103 % of control | [2] 108 % of control | [3] 98 % of control | [4] 108 % of control

CC(Cc1ccc(O)c(O)c1)C(C)Cc1ccc(O)c(O)c1 (configuration not stated)
inactive: dose: 12.0 mg/kg/injection, vehicle: saline with Tween-80 100 % of control | [5] 113 % of control | [6] 103 % of control | [7] 94 % of control | [8] 104 % of control | [9] 100 % of control

CC(=O)Oc1[nH]c(=O)c2cccc3c2c1CCC3
inactive: [5] 104 % of control | [6] 122 % of control | [7] 102 % of control | [8] 107 % of control | [9] 105 % of control

CC(C)(C)N1CC1CNC(=O)C(=O)NCC1CN1C(C)(C)C (configuration not stated)
inactive: dose: 0.39 mg/kg/injection, vehicle: saline with Tween-80 99 % of control | dose: 0.78 mg/kg/injection, vehicle: saline with Tween-80 102 % of control and 108 % of control | dose: 1.56 mg/kg/injection, vehicle: saline with Tween-80 105 % of control and 106 % of control | dose: 3.12 mg/kg/injection, vehicle: saline with Tween-80 101 % of control and 122 % of control | [10] 104 % of control and 111 % of control | [11] 108 % of control and 123 % of control

O=c1n(CC2CO2)c(=O)n(CC2CO2)n1CC1CO1 (configuration not stated)
inactive: [1] 100 % of control | [2] 108 % of control | [3] 108 % of control

COc1cc2cc[n+](C)c(Cc3ccccc3)c2cc1OC
inactive: dose: 3.13 mg/kg/injection, vehicle: saline with Tween-80 112 % of control | [10] 120 % of control | [11] 96 % of control | [5] 99 % of control | [6] 91 % of control

CCCCC(=O)OCC(=O)[C@]1(O)Cc2c(O)c3c(c(O)c2[C@@H](OC2CC(NC(=O)C(F)(F)F)C(O)C(C)O2)C1)C(=O)c1c(OC)cccc1C3=O (some centres not stated)
inactive: dose: 4.0 mg/kg/injection, vehicle: Klucel (hydroxypropylcellulose) (HPC) 100 % of control | dose: 4.0 mg/kg/injection, vehicle: saline with Tween-80 107 % of control | dose: 8.0 mg/kg/injection, vehicle: Klucel (hydroxypropylcellulose) (HPC) 100 % of control | dose: 8.0 mg/kg/injection, vehicle: saline with Tween-80 88 % of control | dose: 16.0 mg/kg/injection, vehicle: Klucel (hydroxypropylcellulose) (HPC) 107 % of control | dose: 16.0 mg/kg/injection, vehicle: saline with Tween-80 96 % of control | dose: 32.0 mg/kg/injection, vehicle: Klucel (hydroxypropylcellulose) (HPC) 110 % of control | dose: 32.0 mg/kg/injection, vehicle: saline with Tween-80 108 % of control | dose: 64.0 mg/kg/injection, vehicle: Klucel (hydroxypropylcellulose) (HPC) 118 % of control | dose: 128.0 mg/kg/injection, vehicle: Klucel (hydroxypropylcellulose) (HPC) 120 % of control

CN(C=O)C(C(=O)Nc1cccc2c(OC(=O)C(N(C)C=O)(N(C)C=O)N(C)C=O)c(N=Nc3ccc(S(=O)(=O)Nc4nccs4)cc3)cc(N=Nc3ccc(S(=O)(=O)Nc4nccs4)cc3)c12)(N(C)C=O)N(C)C=O (tested in a mixture with another compound)
inactive: [5] 103 % of control | [6] 98 % of control | [7] 99 % of control and 104 % of control | [8] 94 % of control and 98 % of control | [9] 103 % of control and 110 % of control | dose: 800.0 mg/kg/injection, vehicle: saline with Tween-80 107 % of control

CCSC(=O)N1c2ccc(OC)cc2C=CC1C#N (configuration not stated)
inactive: [11] 98 % of control | [5] 113 % of control | [6] 99 % of control | [7] 104 % of control | [8] 110 % of control | [9] 108 % of control

COC(=O)C(CSC(c1ccccc1)(c1ccccc1)c1ccccc1)NC(=O)C(CC(N)=O)NC(=O)OCc1ccccc1 (stereo not drawn) (Cbz-Asn-Cys(Trt)-OMe; configuration not given here)
inactive: [12] 97 % of control | [13] 103 % of control | [14] 103 % of control | [15] 98 % of control | dose: 200.0 mg/kg/injection, vehicle: distilled water + Tween-80 97 % of control | dose: 400.0 mg/kg/injection, vehicle: distilled water + Tween-80 98 % of control

COc1cccc2c1C(=O)c1c(O)c3c(c(O)c1C2=O)C[C@H](O)C[C@@H]3OC1CC(N)C(O)C(C)O1 (some centres not stated)
inactive: dose: 0.75 mg/kg/injection, vehicle: water 100 % of control | dose: 1.5 mg/kg/injection, vehicle: water 104 % of control | dose: 3.0 mg/kg/injection, vehicle: water 100 % of control | dose: 6.0 mg/kg/injection, vehicle: water 104 % of control

O=C(O)CCCCCCCC(=O)O
inactive: [12] 100 % of control | [13] 99 % of control | [14] 100 % of control | [15] 98 % of control

COC(=O)Nc1cn2ccc(Sc3ccccc3)cc2n1
inactive: [16] 101 % of control | [17] 106 % of control | [18] 101 % of control

O=C(NO)c1ccc(O)c(O)c1
inactive: [3] 100 % of control | [4] 98 % of control | dose: 50.0 mg/kg/injection, vehicle: suspension in saline 98 % of control | [19] 101 % of control | dose: 100.0 mg/kg/injection, vehicle: suspension in saline 110 % of control | dose: 200.0 mg/kg/injection, vehicle: saline 100 % of control | dose: 200.0 mg/kg/injection, vehicle: suspension in saline 118 % of control | dose: 400.0 mg/kg/injection, vehicle: suspension in saline 124 % of control
active: dose: 400.0 mg/kg/injection, vehicle: saline 158 % of control

CCC1OC(OC)C=CC1=O (configuration not stated)
inactive: [2] 97 % of control | [4] 97 % of control

Cc1c(N)nc(C(CC(N)=O)NCC(N)C(N)=O)nc1C(=O)NC(C(=O)NC(C)C(O)CC(=O)NC(C(=O)NC(OC1OC(C)C(N)C(O)C1O)C(O)c1nc(-c2nc(C(=O)NCCCC(N)CC(=O)NCCCNCCCCN)cs2)cs1)C(C)O)C(OC1OC(CO)C(O)C(O)C1OC1OC(CO)C(O)C(OC(N)=O)C1O)c1cnc[nH]1 (configuration not stated)
inactive: dose: 1.0 mg/kg/injection, vehicle: saline 124 % of control | dose: 2.0 mg/kg/injection, vehicle: saline 123 % of control

O=c1nc(-c2ccco2)sc(=O)[nH]1
inactive: dose: 12.0 mg/kg/injection, vehicle: Klucel (hydroxypropylcellulose) (HPC) 112 % of control | dose: 25.0 mg/kg/injection, vehicle: Klucel (hydroxypropylcellulose) (HPC) 96 % of control | [16] 105 % of control | [17] 116 % of control | [18] 104 % of control

C[C@H](N)C(=O)N[C@@H]1[C@H]2C(=C(O)C[C@@H](O)[C@@H]2O)C(=O)O[C@@H]1C
inactive: dose: 75.0 mg/kg/injection, vehicle: saline 102 % of control and 106 % of control | dose: 150.0 mg/kg/injection, vehicle: saline 105 % of control and 106 % of control | dose: 300.0 mg/kg/injection, vehicle: saline 107 % of control and 110 % of control | dose: 600.0 mg/kg/injection, vehicle: saline 114 % of control and 120 % of control | dose: 1200.0 mg/kg/injection, vehicle: saline 117 % of control

O=C(Nc1cccc(Cl)c1)ON1C(=O)C2C(C1=O)C1(Cl)C(Cl)C(Cl)C2(Cl)C1(Cl)Cl (configuration not stated)
inactive: [5] 95 % of control | [6] 97 % of control | [7] 87 % of control

c1cc2n(n1)CCN2
inactive: [3] 107 % of control | [4] 97 % of control | [19] 97 % of control
